The assay has as its system Sprague-Dawley rats made diabetic with streptozotocin. Put plainly: Pharmacodynamics after subcutaneous injection in a rat model of diabetes mellitus (blood-glucose concentration over time). Type of assay: in vivo. The settings on record: dose equivalent in nanomoles to 15 μg insulin lispro per 300-gram rat, relative to insulin lispro, FIG. 6.

Description: The dose was 15 μg of insulin lispro per 300-gram rat; doses of the SCIs were equivalent in units of nanomoles per 300-gram rat (i.e., micrograms corrected for respective molecular masses).

As for “SCI-4: 57-residue single-chain insulin analogue, C domain EAAAAA, substitutions His^A8, Glu^A14, Asp^B28, Pro^B29; expressed in Pichia pastoris (FVNQHLCGSHLVEALYLVCGERGFFYTDPTEAAAAAGIVEQCCHSICSLEQLENYCN)”, the “integrated potency (area over the curve)” value is “essentially identical to that of insulin lispro”, the “offset of action / duration of action (tail of insulin action)” value is on record as “essentially identical to that of insulin lispro” and the onset of action result was “essentially identical to that of insulin lispro”.

The values above are taken from patent publication US20220002373A1, “SINGLE-CHAIN INSULIN ANALOGUES WITH POLY-ALANINE C-DOMAIN SUB-SEGMENTS” (CASE WESTERN RESERVE UNIVERSITY, priority 2018, published 2022).
